Data on three molecules can be found in patent US9611314B2, “Functional peptide analogs of PEDF” (The Penn State Research Foundation, priority 2013, dated 2017).

Where no end group is shown, it is not given here.

One data set concerns ZO1 and occludin. Briefly: qPCR of tight junction mRNA (potential to reduce vascular leakage). In kind it is cell-based. As to conditions: compared to P78 and SpxA1. The method, then:
(§1) Briefly, to test efficacy of the compounds in preventing cell death, experiments were performed to screen for the ability of each analog to: 1) increase cellular bioenergetic levels in an ATP assay and 2) reduce cell death in an LDH assay. To test the action of each analog on inflammatory processes, Luminex bead arrays were used to examine the ability of each analog to decrease production of inflammatory cytokines. To test for the potential of each analog to reduce vascular leakage, qPCR was used to examine the ability of each analog to increase mRNA levels of ZO1 and occludin, two junction proteins essential to vascular integrity. To test peptide stability in the vitreous, the analogs were incubated with dissected vitreous humor and the samples were analyzed at various time points using Maldi-TOF. These tests allowed for the systematic selection of analogs having the least toxicity and the strongest potential to reduce pathology in vivo.
To test for the potential of each peptide (81-2, 81-5, 81-12, 81-13 and 81-20) to reduce vascular leakage, qPCR was used to examine the ability of each analog to increase mRNA levels of Z01, a junction protein essential to vascular integrity (FIG. 4A).

The next data set relates to human ARPE19 cells. The experiment in a line: Cell viability by ATP levels (CellTiter-Glo), serum starvation or H2O2. In kind it is cell-based. As to conditions: serum starvation and 300 uM H2O2, 25 nM peptide, 48 hr. The method, then:
The analogs were tested for their efficacy in reducing levels of TNFα, IFNγ, VEGF-A and increasing cell viability in in vitro assays. Efficacy was compared to both non-treated oxidative stressed controls and the control standard P78.
as §1
The effects of the peptides to increase cell viability by increasing levels of ATP were tested in two models of cell death: (i) serum starvation; (ii) oxidative stress caused by hydrogen peroxide toxicity (300 uM). With respect to serum starvation, human ARPE19 cells were grown to ˜85% confluency in 10% serum containing medium after which the cells were placed in serum-free medium for 48 hr in the presence or absence (control) of 25 nM of each peptide. For ATP assay, CellTiter-Glo® reagents were used and luminescence was determined after 12 min spectrophotometrically (n=4) (FIG. 2A). With respect to oxidative stress, human ARPE19 cells were grown to ˜85% confluency in 10% serum containing medium. The cells were then treated with 300 uM H2O2 for 48 hours in the presence or absence (control) of 25 nM of each peptide. Levels of ATP were measured and % luminescence to controls and P78 was quantitated (n=4). Changes to ATP levels are plotted against control values and p values are given to P78 (FIG. 2B).

A further data set concerns VEGF. Briefly: Vitreous VEGF after 15 wks eye drops (Luminex). In kind it is in vivo, Ins2Akita mouse. As to conditions: 5 μg eye drop 2×/wk for 15 wks, relative to diabetic controls. As for the experimental part: From the in vitro P78 peptide analog screening studies, five structurally diverse analogs with best biological activity were selected to test their efficacy in the diabetic mouse eye. In vivo effects of these peptides were tested in the Ins2Akita mouse model of DR, a well-characterized DR model that has a mutation in the insulin gene. Heterozygote Ins2Akita mice (Jackson Lab) become hyperglycemic (HG) at ˜4.5 wks of age. RGC death and inflammation occur within the first 4-6 wks of DR and vascular pathology is first noticed ˜13 wks after the onset of diabetes. The studies were designed to identify peptide candidates with pleotrophic effects on cell death, inflammation, and vascular leakage in the diabetic retina.
Male hyperglycemic mice with blood glucose levels >300 mg/dL were used and treatments carried as previously described for P78 (Liu et al., 2012, Mol. Med., 18(1): 1387-1401). Diabetic mice were treated 2×/wk for 15 wks at the onset of HG using a single dose of 5 μg/5 μl artificial tears for each drug, a dose at which P78 is effective. Both eyes received the same treatment to avoid drug cross contamination between the eyes of an individual animal. […]
Levels of VEGF were also quantitated in the vitreous of the 15 wks peptide treated and control groups using the Luminex bead technology. […]

The next data set relates to HUVEC. Briefly: VEGF-mediated HUVEC tube formation on human dermal fibroblasts. The format is cell-based. As to conditions: 100 nM peptide, 4 ng/ml VEGF, 12 days; compared to VEGF. As for the experimental part:
Human dermal fibroblasts were cultured at 1×10^5/well in IncuCyte seeding medium (Essen Bioscience) in 96 wells plates for 1 hr. Medium was removed and replaced with complete IncuCyte growth medium (Essen Bioscience). Human umbilical vein endothelial cells (HUVEC) containing a green fluorescent marker (HUVEC CytoLight green) cells at 2000 cells/well were/well to attached dermal fibroblasts cultures and placed in the IncuCyte Zoom fluorescent and phase contrast multiplex imaging incubator (Essen BioScience). Twenty four hours later 4 ng/ml VEGF was added to all wells and 100 nM/ml PEDF peptides added to test wells. Cultures containing VEGF alone were used as positive controls and those containing 100 μM Suramin (VEGF inhibitor) used as negative controls. The cultures were placed at 37° C. in the Incucyte Zoom and HUVEC tube length networks measured over a 12 day incubation period using the Incucyte CellPlayer Angiogenesis software module and interface systems. Media was refreshed every 3-4 days.

Data set [1] can be described thus: Peptide bioavailability in mouse vitreous after 5 μg eye drop (MALDI TOF). In kind it is in vivo, C57BL/6 mice. As to conditions: mouse, in vivo. As for the experimental part:
Before the longitudinal efficacy studies were carried out in vivo, the bioavailability of the five analogs was examined in comparison to the parent compound P78 and its active 29-mer derivative, SpxA1.
Bioavailability of each peptide was determined in vitreous samples obtained at various time points after eye drops were given. Vitreous samples were harvested from enucleated eyes and immediately analyzed by mass spectrometry. Spectral intensities were compared to spectra of known concentrations of each analog to calculate amounts of peptides reaching the vitreous. The eye drops administered to normal mouse eyes contained 5 μg of the test compound. Bioavailability was studied at three time points: 1, 4, 6 hr using four animals/time point (n=8 eyes). The vitreous was rapidly dissected from each group after the drops were given and immediately analyzed by MALDI TOF.

The nature of data set [2]: Peptide bioavailability in primate eyes, vitreous humor by mass spectrometry. The format is in vivo, primate (Vervets). Conditions: 100 μg topical. The text has this: From the studies using the DR mouse model, two active, structurally diverse peptides 81-5 and 81-13 were selected to test their availability in the primate eye when given topically. There are substantial differences between the eyes of rodents, primates, and humans. The most obvious is size of the aqueous and vitreous fluid compartments. Fluid flow forward from the ciliary body in primates/humans is countercurrent to drug movement to the back of the eye and may influence drug concentrations in the vitreous. In this study, it was examined whether the selected compounds had access to the retina when given topically to primate eyes as they do in rodents. Peptide doses used were scaled up by 8-20 fold as an estimate to account for differences in eye volume between rodents and primates.
Adult males and females were equally distributed into 3 treatment groups (Table 3) and randomized by weight criteria. Animals were fasted overnight then sedated with ketamine (8 mg/kg, I.M) and xylazine (1.6 mg/kg, I.M) prior to all procedures. Two monkeys received a topical dose of 40 μg (40 μl) of 81-5 OU (both eyes) and underwent vitreocentesis at ˜1 hr (Group 1) after dosing. […]
Samples were analyzed by mass spectrometry and concentrations calculated using a standard curve that plotted intensity vs known concentration. […]

The next data set concerns transcription factors. Briefly: Procarta multiplex transcription factor DNA binding activity. In kind it is cell-based. Conditions: 50 nM peptides, 48 hr, human RPE cells. The method, then: Activation of transcription factors by P78, spx or 81-5 was measured in human RPE cells. The Affymetrix Procarta Multiplex Transcription factor panel (Affymetrix, Inc. Santa Clara, Calif.) was used to obtain quantitative measurement of DNA binding activity of 44 transcription factors. Cells were seeded at 1×10^5 cells/ml in 6 well plates. Cells were treated with 50 nM peptides in 2% FBS medium for 48 hr, peptides were supplied twice after 24 hr. Cells were harvested using Buffer A working reagent (250 μl well)(1 ml Buffer A: 10 μl DTT, 10 μl protease inhibitor, 10 μl phosphatase inhibitor I, 10 μl phosphatase inhibitor II) and centrifuged at 14,000×g for 3 min at 4° C. Supernatant containing cytoplasmic proteins was collected and protein concentration estimated using the BioRad DC protein assay. To the nuclear pellets, 30 μl/well buffer B (1 ml Buffer B: 10 μl DTT, 10 μl protease inhibitor, 10 μl phosphatase inhibitor I) was added and the samples incubated for 2 hours at 200 rpm. Supernatant containing nuclear proteins was collected by centrifugation at 14,000×g for 5 min at 4° C. and protein concentration measured using Bio-Rad DC protein assay. […] The beads were washed again, resuspended with reading buffer, and incubated for 5 min at room temperature. DNA binding activity of the transcription factors was measured using the Bio-Plex 200 system (bio-Rad) and the xMAP technology.

Consider “{BA*}NFGYDLYRVRSSMSPTTNSALSLGADERTESIIHR{PEG*} (not fully specified (N-terminus, C-terminus); printed as {BA*}NFGYDLYRVRSSMSPTTNSALSLGADERTESIIHR{PEG*}) [Peptide 81-12, P60 + 81-1, butyric acid at N-terminus, PEGylated at C-terminus]”, for which the “ZO1 mRNA expression” value in the data set with ZO1 and occludin was “higher expression of ZO1 compared to P78 and SpxA1”. Moreover, the “ATP viability tests: selection for in vivo studies” value in the data set with human ARPE19 cells is reported as “good candidates for the in vivo studies”. Further, the “VEGF levels in the vitreous” value with VEGF is on record as “slightly but significantly more effective”. In addition, the “inhibition of HUVEC tube formation” value in the data set with HUVEC is on record as “prevented tube formation compared to VEGF but less effective”.
In the case of “SALSLGAAERTESIIHR [Peptide 81-13, SALSLGAAERTESIIHR]”, the “bioavailability profile in rodents” value in data set [1] was “comparable bioavailability profiles with 81-5”. In data set [2], the “peptide concentration in the vitreous, 1 versus 2 hr” value is “not significantly different between the 1 and 2 hr treatment”.

B1: Pigment epithelium derived factor (protein)
chain: QNVPSSSEGSPVPDSTGEPVEEEDPFFKVPVNKLAAAVSNFGYDLYRLRSSASPTGNVLLSPLSVATALSALSLGAEHRTESVIHRALYYDLITNPDIHSTYKELLASVTAPEKNLKSASRIVFERKLRVKSSFVAPLEKSYGTRPRILTGNPRVDLQEINNWVQAQMKGKIARSTREMPSALSILLLGVAYFKGQWVTKFDSRKTTLQDFHLDEDRTVRVPMMSDPKAILRYGLDSDLNCKIAQLPLTGSMSIIFFLPLTVTQNLTMIEESLTSEFIHDIDRELKTIQAVLTVPKLKLSFEGELTKSLQDMKLQSLFESPDFSKITGKPVKLTQVEHRAAFEWNEEGAGSSPSPGLQPVRLTFPLDYHLNQPFLFVLRDTDTGALLFIGRILDPSST
Turning to B1, the “regulation of transcription factors” value with transcription factors is given as “regulates transcription factors”.
